Assay results: article PMC3699648, “Replacement of the Human Topoisomerase Linker Domain with the Plasmodial Counterpart Renders the Enzyme Camptothecin Resistant” (PLoS ONE, 2013)

Biological target: T1, hTop1 (Homo sapiens, UniProt P11387)
T1 construct: gene TOP1; expressed in S. cerevisiae top1 null EKY3, anti-FLAG purified
T1 sequence (P11387 1-765): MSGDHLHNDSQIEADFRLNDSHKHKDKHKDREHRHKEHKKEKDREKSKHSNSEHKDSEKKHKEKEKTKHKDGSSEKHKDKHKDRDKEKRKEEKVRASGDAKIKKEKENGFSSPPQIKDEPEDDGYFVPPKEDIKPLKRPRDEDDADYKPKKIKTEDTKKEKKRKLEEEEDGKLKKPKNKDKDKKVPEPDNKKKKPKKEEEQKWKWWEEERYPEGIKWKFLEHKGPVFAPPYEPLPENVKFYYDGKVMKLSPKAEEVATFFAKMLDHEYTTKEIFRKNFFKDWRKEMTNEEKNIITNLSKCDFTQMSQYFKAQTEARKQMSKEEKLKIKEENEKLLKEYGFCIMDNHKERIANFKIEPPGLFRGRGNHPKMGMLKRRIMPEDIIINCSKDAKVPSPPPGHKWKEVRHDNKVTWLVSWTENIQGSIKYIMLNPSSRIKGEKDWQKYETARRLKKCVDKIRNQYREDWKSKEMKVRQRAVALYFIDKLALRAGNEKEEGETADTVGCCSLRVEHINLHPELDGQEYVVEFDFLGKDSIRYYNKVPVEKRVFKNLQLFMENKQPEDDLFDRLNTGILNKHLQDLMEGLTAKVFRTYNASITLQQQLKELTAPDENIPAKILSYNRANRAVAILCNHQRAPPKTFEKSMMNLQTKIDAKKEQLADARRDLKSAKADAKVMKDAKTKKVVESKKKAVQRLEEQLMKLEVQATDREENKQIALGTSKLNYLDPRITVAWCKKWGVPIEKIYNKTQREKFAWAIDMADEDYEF
Test: stabilisation of DNA cleavage complex (CL25/CP25, gel); also relaxation and religation assays
Assay type: biochemical
Conditions: 100 µM CPT, 20 nM duplex CL25/CP25, 1 min, 25 °C, pH 7.5, 5 mM MgCl2, 5 mM CaCl2, 150 mM KCl; binds covalent enzyme-DNA complex

Compound: CC[C@@]1(O)C(=O)OCc2c1cc1n(c2=O)Cc2cc3ccccc3nc2-1 [CPT, camptothecin]
- % cleavage complex at 100 μM: In presence of CPT the hTop1 cleavage is strongly increased
